# US8067456B2 (AEterna Zentaris GmbH, priority 2004, dated 2011)
# Structures can show the parent of a compound that is named as a salt.
# Target: T1, rat LHRH receptor (Rattus norvegicus, UniProt P30969)
# T1 construct: expressed in transfected cells; host or cells: LTK cells (mouse fibroblasts, ATCC CCL-1.3)
# T1 sequence (P30969 1-327): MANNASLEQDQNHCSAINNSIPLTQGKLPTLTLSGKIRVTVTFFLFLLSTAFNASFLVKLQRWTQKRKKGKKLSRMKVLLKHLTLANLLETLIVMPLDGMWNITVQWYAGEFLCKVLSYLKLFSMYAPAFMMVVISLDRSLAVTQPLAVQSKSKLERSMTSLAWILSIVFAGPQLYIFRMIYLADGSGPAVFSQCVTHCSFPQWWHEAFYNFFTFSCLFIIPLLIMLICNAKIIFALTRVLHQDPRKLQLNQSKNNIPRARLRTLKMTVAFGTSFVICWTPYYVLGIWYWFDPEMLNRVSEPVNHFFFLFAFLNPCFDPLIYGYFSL
# Test: LHRH receptor-ligand binding assay (transfected LTK cells)
# Conditions: not given
# Method: ^125I-Triptorelin [^125I-(D)-Trp6-GnRH] was purchased from Biotrend (Cologne, Germany).
# The specific activity was in each case 2.13 Ci/mmol.
# LTK cells (mouse fibroblasts: ATCC No. CCL-1.3) which have been transfected with the rat LHRH receptor are cultivated in DMEM medium (Invitrogen Life Technologies, Germany) with penicillin (100 I.U./ml), streptomycin (0.1 mg/ml) and glutamine (0.01 mol/l) and 10% fetal calf serum (FCS; Invitrogen Life Technologies, Germany) on plastic tissue culture plates (Nunc, Germany, 245×245-20 mm).
# 80% confluent cell culture plates are washed twice with 50 ml of phosphate-buffered saline (PBS) and then detached with 0.01 M EDTA solution. The cells are pelleted by centrifugation at 200·g for 5 min in a laboratory centrifuge (Kendro, Germany). The cell pellet is resuspended in 3 ml of binding medium (DMEM; 10 mM Hepes; 0.5% BSA; 0.1% […]; 1 g/l bacitracin (add fresh, stock 100×); 0.1 g/l SBTI (add fresh, stock 1000×) and the cell count is determined by Trypan blue staining in a Neubauer counting chamber. The cell suspension is adjusted with binding medium to a concentration of 5×10^5 cells/0.05 ml.
# Binding studies for competition plots are carried out as duplicates. The test substances are employed as 10 mM DMSO solutions. They are diluted to 4 times the final concentration employed with binding medium. 25 μl of the substance dilution are mixed with 25 μl of tracer solution (^125I-triptorelin or ^125I-cetrorelix). The tracer concentration is adjusted to approx. 50 000 cpm (measured in a Cobra II, γ counter. PE Liefe Science, Germany) in the final reaction volume of 100 μl.
# 200 μl of silicone/liquid paraffin mixture (84%:16%) are introduced into 650 μl conical tubes (Roth. Germany). 50 μl of the cell suspension are pipetted thereon, followed by 50 μl of the test substance/tracer mixture. The tubes are capped and incubated with vertical rotation in an incubator at 37° C. for 60 min. After incubation, the samples are centrifuged in a centrifuge (Kendro, Germany) at 900 rpm and subsequently shock-frozen in liquid N2. The tip with the cell pellet is cut off and transferred into prepared counting vials (Roth, Germany). The remainder of the conical tube with the remaining supernatant is likewise transferred into a counting vial. The measurement takes place in a γ counter for 1 min/sample.
# Evaluation of the samples takes place after calculation of the specific binding compared with untreated cells, after subtraction of the nonspecific binding (excess of unlabeled ligand, 1 μM) by means of GraphPad Prism or alternatively by means of OMMM software.
row,Compound,EC50
1,"CCC(C)[C@H](NC(=O)[C@@]1(NC(=O)[C@H](CCc2ccc(OP(=O)(O)O)cc2)NC(=O)OCc2ccccc2)CCc2[nH]c3c(Cl)cc(Cl)cc3c2C1)C(N)=S (stereo partly drawn) [Compound 12, benzyl[(S)-1-[(R)-6,8-dichloro-3-((S)-2-methyl-1-thiocarbamoylbutylcarbamoyl)-2,3,4,9-tetrahydro-1H-carbazol-3-ylcarbamoyl]-3-(4-phosphonooxyphenyl)propyl]carbamate]",39.2 nM

# Same assay, conditions: LTK cells transfected with rat LHRH receptor, 125I-triptorelin tracer, 37° C., 60 min; read-out: Binding to r-LHRHR EC50
row,Compound,EC50
1,"2-chlorobenzyl {(S)-1-[(R)-3-((S)-carbamoyl-2-methylbutylcarbamoyl)-6,8-dichloro-2,3,4,9-tetrahydro-1H-carbazol-3-ylcarbamoyl]-2-methylbutyl}carbamate [Compound 6]",104 nM
2,"CC(C)[C@H](NC(=O)[C@@]1(NC(=O)[C@@H](NC(=O)OCc2ccc(Cl)cc2)C(C)C)CCc2[nH]c3c(Cl)cc(Cl)cc3c2C1)C(N)=O [Compound 1, 4-chlorobenzyl {(S)-1-[(R)-3-((S)-1-carbamoyl-2-methylpropylcarbamoyl)-6,8-dichloro-2,3,4,9-tetrahydro-1H-carbazol-3-ylcarbamoyl]-2-methylpropyl}carbamate]",261 nM
3,"CCC(C)[C@H](NC(=O)OCc1ccc(Cl)cc1)C(=O)N[C@]1(C(=O)N[C@H](C(N)=O)C(C)C)CCc2[nH]c3c(Cl)cc(Cl)cc3c2C1 (stereo partly drawn) [Compound 2, 4-chlorobenzyl {(S)-1-[(R)-3-((S)-1-carbamoyl-2-methylpropylcarbamoyl)-6,8-dichloro-2,3,4,9-tetrahydro-1H-carbazol-3-ylcarbamoyl]-2-methylbutyl}carbamate]",205 nM
4,"CCC(C)[C@H](NC(=O)[C@@]1(NC(=O)[C@@H](NC(=O)OCc2ccc(Cl)cc2)C(C)CC)CCc2[nH]c3c(Cl)cc(Cl)cc3c2C1)C(N)=O (stereo partly drawn) [Compound 3, 4-chlorobenzyl {(S)-1-[(R)-3-((S)-carbamoyl-2-methylbutylcarbamoyl)-6,8-dichloro-2,3,4,9-tetrahydro-1H-carbazol-3-ylcarbamoyl]-2-methylbutyl}carbamate]",47.2 nM
5,"CCC(C)[C@H](NC(=O)[C@@]1(NC(=O)[C@@H](NC(=O)Cc2cccc(F)c2)C(C)CC)CCc2[nH]c3c(Cl)cc(Cl)cc3c2C1)C(N)=O (stereo partly drawn) [Compound 5, (R)-6,8-dichloro-3-{(S)-2-[2-(3-fluorophenyl)acetylamino]-3-methylpentanoylamino}-2,3,4,9-tetrahydro-1H-carbazole-3-carboxylic acid ((S)-1-carbamoyl-2-methylbutyl)amide]",98.3 nM
6,"CCC(C)[C@H](NC(=O)[C@@]1(NC(=O)[C@H](CCc2ccc(OC(=O)OCc3ccccc3)cc2)NC(=O)OCc2ccccc2)CCc2[nH]c3c(Cl)cc(Cl)cc3c2C1)C(N)=O (stereo partly drawn) [Compound 8, benzyl 4-{(S)-3-benzyloxycarbonylamino-3-[(R)-3-((S)-1-carbamoyl-2-methylbutylcarbamoyl)-6,8-dichloro-2,3,4,9-tetrahydro-1H-carbazol-3-ylcarbamoyl]propyl}phenylcarbonate]",45.3 nM
7,"CCC(C)[C@H](NC(=O)Cc1ccccc1F)C(=O)N[C@]1(C(=O)N[C@H](C(N)=S)C(C)CC)CCc2[nH]c3c(Cl)cc(Cl)cc3c2C1 (stereo partly drawn) [Compound 13, (R)-6,8-dichloro-3-{(S)-2-[2-(2-fluorophenyl)acetylamino]-3-methylpentanoylamino}-2,3,4,9-tetrahydro-1H-carbazole-3-carboxylic acid ((S)-2-methyl-1-thiocarbamoylbutyl)amide]",2.4 nM
8,"CCC(C)[C@H](NC(=O)[C@@]1(NC(=O)[C@H](CCc2ccc(O)cc2)NC(=O)Cc2ccccc2F)CCc2[nH]c3c(Cl)cc(Cl)cc3c2C1)C(N)=S (stereo partly drawn) [Compound 14, (R)-6,8-dichloro-3-[(S)-2-[2-(2-fluorophenyl)acetylamino]-4-(4-hydroxyphenyl)butyrylamino]-2,3,4,9-tetrahydro-1H-carbazole-3-carboxylic acid ((S)-2-methyl-1-thiocarbamoyl-butyl)amide]",2.05 nM
9,"CCC(C)[C@H](NC(=O)CCc1ccc(F)cc1)C(=O)N[C@]1(C(=O)N[C@H](C(N)=O)C(C)C)CCc2[nH]c3c(Cl)cc(Cl)cc3c2C1 (stereo partly drawn) [Compound 16, (R)-6,8-dichloro-3-((S)-2-[3-(4-fluorophenyl)propionylamino]-3-methylpentanoylamino)-2,3,4,9-tetrahydro-1H-carbazole-3-carboxylic acid ((S)-1-carbamoyl-2-methylpropyl)amide]",628 nM
10,"CC(C)[C@H](NC(=O)[C@@]1(NC(=O)[C@H](CCCCN)NC(=O)CCc2ccc(F)cc2)CCc2[nH]c3c(Cl)cc(Cl)cc3c2C1)C(N)=O [Compound 17, (S)-5-[(R)-3-((S)-1-carbamoyl-2-methylpropylcarbamoyl)-6,8-dichloro-2,3,4,9-tetrahydro-1H-carbazol-3-ylcarbamoyl]-5-[3-(4-fluorophenyl)propionylamino]pentylammonium trifluoroacetate]",525 nM
11,CCC(C)[C@H](NC(=O)[C@@]1(NC(=O)[C@H](CCc2ccc(O)cc2)NC(=O)CCc2ccccc2F)CCc2[nH]c3c(Cl)cc(Cl)cc3c2C1)C(N)=O (stereo partly drawn) [Compound 22],24.6 nM
12,"CCC(C)[C@H](NC(=O)[C@@]1(NC(=O)[C@@H](NC(=O)CCc2ccccc2F)C(C)CC)CCc2[nH]c3c(Cl)cc(Cl)cc3c2C1)C(N)=O (stereo partly drawn) [Compound 23, (R)-6,8-dichloro-3-{(S)-2-[3-(2-fluorophenyl)propionylamino]-3-methylpentanoylamino}-2,3,4,9-tetrahydro-1H-carbazole-3-carboxylic acid ((S)-1-carbamoyl-2-methylbutyl)amide]",72.9 nM
13,"CCC(C)[C@H](NC(=O)[C@@]1(NC(=O)[C@H](CCc2ccc(OCCOCCOCCOCCOC)cc2)NC(=O)OCc2ccccc2)CCc2[nH]c3c(Cl)cc(Cl)cc3c2C1)C(N)=S (stereo partly drawn) [Compound 24, benzyl {(S)-1-[(R)-6,8-dichloro-3-((S)-2-methyl-1-thiocarbamoylbutylcarbamoyl)-2,3,4,9-tetrahydro-1H-carbazol-3-ylcarbamoyl]-3-[4-(2-{2-[2-(2-methoxyethoxy)ethoxy]-ethoxy}ethoxy)phenyl]propyl}carbamate]",13.5 nM
14,"CCC(C)[C@H](NC(=O)OCc1ccccc1)C(=O)N[C@]1(C(=O)N[C@H](C(N)=S)C(C)CC)CCc2[nH]c3c(Cl)cc(F)cc3c2C1 (stereo partly drawn) [Compound 25, benzyl {(S)-1-[(R)-8-chloro-6-fluoro-3-((S)-2-methyl-1-thiocarbamoylbutylcarbamoyl)-2,3,4,9-tetrahydro-1H-carbazol-3-ylcarbamoyl]-2-methylbutyl}carbamate]",4.2 nM
